Measured values published in patent US20240327423A1, “A SERIES OF PYRROLE DERIVATIVES AND THEIR PREPARATION METHOD AND THERAPEUTIC USE” (SHENZHEN SUNGENING BIO-MEDICAL CO., LTD, priority 2020, published 2024).
In brackets after ≈: the same amount, converted by molar mass.

Tests used:
[1] = Liver microsomal stability test, mouse; assay type: in vitro ADME; conditions: Mouse liver microsomes; for CLint scaled / half-life: 0.5 mg/mL protein, 37° C., NADPH
[2] = system: Aspergillus fumigatus (ATCC-204305); experiment: Measurement of minimum inhibitory concentration (MIC), ATCC 204305; assay type: cell-based; conditions: ATCC204305; Aspergillus fumigatus ATCC 204305, 35° C., 48 hours
Protocol: New streaks are made with glycerol stock solution of the strains of Aspergillus [NT] MYA-4609/AF 293/CBS 101355) on Sabouraud's dextrose agar (SDA), incubate at 35° C. and a humidity of 40-70% for 72 hours. Other strains are processed as the same as AF293. RPMI1640: one packet of RPMI1640 powder is dissolved in 1 L purified water and mixed well, add 0.165M MOPS, adjust the pH to 7.0, sterilize by filtration with 0.22 um membrane, and store at 4° C. for no more than 3 months. Physiological saline: weigh 9 g of sodium chloride powder and dissolve in 1 L of purified water, and mixed well. […] Dissolve the test compound and stock solution of one control compound with DMSO and obtain solutions at a concentration of 12.8 mg/mL The maximum concentration of each compound is 0.8 mg/mL (e.g., 150 μL of dimethyl sulfoxide+10 uL of 12.8 mg/mL compound/control). […] Repeat the above steps up to column 11 to give 2× serial dilutions. 2 μL of the above 2× serial dilutions are injected into each hole of the corresponding test plate using a multichannel pipette. Drop 5 ml of saline on the Aspergillus fumigatus SDA plate. The spores were carefully wiped off from the surface of the plate with an L-shaped coating rod. Then the suspension is transferred into a sterile tube. After shaking, let the tube stand for 5 to 10 minutes. Count the number of spores in the upper suspension with a hemocytometer and check the purity. Adjust the inoculum concentration to 0.2-2.5×10^4 spores/mL. Inject 198 μL of diluted inoculum into each holes of the corresponding test plate using a multichannel pipette. Incubate at 35° C. for 48 hours. […] To facilitate scoring of the presence or absence of growth on the wall, a magnifying glass is used. The tested 96-well microplates were photographed and the optical density at 530 nm is read with an enzyme marker (Tecan Spark).

[3] = Liver microsomal stability test, human; assay type: in vitro ADME; conditions: Human liver microsomes; for CLint scaled / half-life: 0.5 mg/mL protein, 37° C., NADPH
[4] = system: Aspergillus flavus (ATCC MYA-1004); experiment: Measurement of minimum inhibitory concentration (MIC), ATCC MYA-1004; assay type: cell-based; conditions: Aspergillus flavus ATCC MYA-1004, 35° C., 48 hours
Protocol: New streaks are made with glycerol stock solution of the strains of Aspergillus fumigatus (ATCC MYA-4609/AF 293/CBS 101355) on Sabouraud's dextrose agar (SDA), incubate at 35° C. and a humidity of 40-70% for 72 hours. Other strains are processed as the same as AF293.
RPMI1640: one packet of RPMI1640 powder is dissolved in 1 L purified water and mixed well, add 0.165M MOPS, adjust the pH to 7.0, sterilize by filtration with 0.22 um membrane, and store at 4° C. for no more than 3 months.
Physiological saline: weigh 9 g of sodium chloride powder and dissolve in 1 L of purified water, and mixed well. Sterilize at 121° C. for 30 min, store at room temperature (RT) for no more than 1 week.
Dissolve the test compound and stock solution of one control compound with DMSO and obtain solutions at a concentration of 12.8 mg/mL
The maximum concentration of each compound is 0.8 mg/mL (e.g., 150 μL of dimethyl sulfoxide+10 uL of 12.8 mg/mL compound/control). Column 1 is filled with 40 μL of compound and columns 2 to 11 with 20 μL of dimethyl sulfoxide. Transfer 20 μL of compound from column 1 to column 2 to dilute the concentration. Repeat the above steps up to column 11 to give 2× serial dilutions.
2 μL of the above 2× serial dilutions are injected into each hole of the corresponding test plate using a multichannel pipette.
Drop 5 ml of saline on the Aspergillus fumigatus SDA plate. The spores were carefully wiped off from the surface of the plate with an L-shaped coating rod. Then the suspension is transferred into a sterile tube. After shaking, let the tube stand for 5 to 10 minutes. Count the number of spores in the upper suspension with a hemocytometer and check the purity. Adjust the inoculum concentration to 0.2-2.5×10^4 spores/mL.
Inject 198 μL of diluted inoculum into each holes of the corresponding test plate using a multichannel pipette.
Incubate at 35° C. for 48 hours.
To facilitate scoring of the presence or absence of growth on the wall, a magnifying glass is used. The tested 96-well microplates were photographed and the optical density at 530 nm is read with an enzyme marker (Tecan Spark).

[5] = system: Aspergillus fumigatus (ATCC MYA-4609/AF293/CBS 101355); experiment: Measurement of minimum inhibitory concentration (MIC), AF293; assay type: cell-based; conditions: CBS101355; Aspergillus fumigatus AF293, 35° C., 48 hours, RPMI1640; read-out: AF293: MIC
Procedure, shortened: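 Broth microdilution in RPMI1640 buffered with 0.165M MOPS, pH 7.0, spore inoculum 0.2-2.5×10^4 spores/mL from SDA cultures. Twofold compound dilutions in DMSO, 1% of final volume. Incubated 35 °C for 48 h; growth scored visually with magnifier and OD530 read.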

Row | Compound | CLint scaled [1] [mL/min/kg] | half-life [1] [min] | Remaining, (T = 60 min) [1] [%] | MIC [2] [µg/mL] | CLint scaled [3] [mL/min/kg] | half-life [3] [min] | Remaining, (T = 60 min) [3] [%] | MIC [4] [µg/mL] | MIC [5] [µg/mL]
1 | Cc1cc(-c2ccccc2)c(C(=O)C(=O)Nc2cc(F)c3c(c2)OC[C@H]2CN(c4ncc(F)cn4)CCN32)n1C [Example 5] | 115 | 21.8 | 15.7 | 0.016 (≈ 0.0294 µM) | 48.8 | 25.6 | 20.4 | 0.004 (≈ 0.00735 µM) | 0.016 (≈ 0.0294 µM)
2 | Cc1cc(-c2ccccc2)c(C(=O)C(=O)Nc2ccc3c(c2)C[C@H]2CN(c4ncc(F)cn4)CCN32)n1C [Example 33, (S)-2-(1,5-dimethyl-3-phenyl-1H-pyrrol-2-yl)-N-(2-(5-fluoropyrimidin-2-yl)-1,2,3,4,10,10a-hexahydropyrazino[1,2-a]indol-8-yl)-2-oxoacetamide] | 50.2 | 49.6 | 44.8 | 0.016 (≈ 0.0313 µM) | 25.9 | 48.2 | 43.4 | 0.008 (≈ 0.0157 µM) | 0.004 (≈ 0.00783 µM)
3 | Cc1cc(-c2ccccc2)c(C(=O)C(=O)Nc2ccc(N3CCN(c4ncc(F)cn4)CC3)cc2)n1C [Example F901318, reference compound] | 98.9 | 25.2 | 18.7 | 0.016 (≈ 0.0321 µM) | 37.8 | 33 | 27.7 | 0.004 (≈ 0.00802 µM) | 0.03 (≈ 0.0602 µM)
